Data on four molecules can be found in US12145945B2, “Compounds, compositions, and therapeutic uses thereof” (Breakpoint Therapeutics GmbH, priority 2023, dated 2024).

This test has as its target truncated Polθ protein (Polθ-Hel containing the helicase domain (67-894)) (Homo sapiens (Human), UniProt O75417). Description: Polθ ATPase assay (Biological Assay 1, ADP-Glo luminescence). Format: biochemical. The method, then:
The Polθ ATPase assay was used to evaluate inhibitors of Polθ ATPase activity, in vitro. Experiments were performed using a truncated Polθ protein (Polθ-Hel containing the helicase domain (67-894), ATP and a DNA single strand Oligo (5′-CTGTCCTGCATGATG-3′) in the Polθ assay buffer (20 mM Tris-HCl (pH 8.8), MgCl2 5 mM, tween20 0.01%, NP40 0.01%, BSA 0.01%, DTT 1 mM). 2 μL of assay buffer containing Polθ-Hel protein (0.5 nM) and DNA substrate (500 nM) was transferred into assay ready plates, containing 0.04 μL of compounds diluted in DMSO. After a 30 minutes incubation at 23° C. in the dark, the reaction was triggered by adding 2 μL of ATP (60 μM), in assay buffer. After 60 minutes at 23° C., 4 μl of ADP-Glo™ Reagent (Glo 1) was added followed by 40 minutes of incubation, then 8 μl of ADP-Glo™ kinase Detection Reagent (Glo 2) followed by 60 minutes of incubation at 23° C. Luminescence was then measured using Tecan F200 infinite plate reader. Raw data were analysed using GeneData to generate IC50 values.
The Polθ ATPase assay described in Biological Assay 1 above was used to evaluate inhibitors of Polθ ATPase activity for the compounds described in the Experimental Part B above, in vitro.
For orientation: In ADP-Glo the light output rises with the ADP produced.

The mark [1] stands for this setting: Table A, Polθ-Hel 0.5 nM, DNA substrate 500 nM, ATP 60 μM.

truncated Polθ protein (Polθ-Hel containing the helicase domain (67-894)), sequence (O75417 67-894): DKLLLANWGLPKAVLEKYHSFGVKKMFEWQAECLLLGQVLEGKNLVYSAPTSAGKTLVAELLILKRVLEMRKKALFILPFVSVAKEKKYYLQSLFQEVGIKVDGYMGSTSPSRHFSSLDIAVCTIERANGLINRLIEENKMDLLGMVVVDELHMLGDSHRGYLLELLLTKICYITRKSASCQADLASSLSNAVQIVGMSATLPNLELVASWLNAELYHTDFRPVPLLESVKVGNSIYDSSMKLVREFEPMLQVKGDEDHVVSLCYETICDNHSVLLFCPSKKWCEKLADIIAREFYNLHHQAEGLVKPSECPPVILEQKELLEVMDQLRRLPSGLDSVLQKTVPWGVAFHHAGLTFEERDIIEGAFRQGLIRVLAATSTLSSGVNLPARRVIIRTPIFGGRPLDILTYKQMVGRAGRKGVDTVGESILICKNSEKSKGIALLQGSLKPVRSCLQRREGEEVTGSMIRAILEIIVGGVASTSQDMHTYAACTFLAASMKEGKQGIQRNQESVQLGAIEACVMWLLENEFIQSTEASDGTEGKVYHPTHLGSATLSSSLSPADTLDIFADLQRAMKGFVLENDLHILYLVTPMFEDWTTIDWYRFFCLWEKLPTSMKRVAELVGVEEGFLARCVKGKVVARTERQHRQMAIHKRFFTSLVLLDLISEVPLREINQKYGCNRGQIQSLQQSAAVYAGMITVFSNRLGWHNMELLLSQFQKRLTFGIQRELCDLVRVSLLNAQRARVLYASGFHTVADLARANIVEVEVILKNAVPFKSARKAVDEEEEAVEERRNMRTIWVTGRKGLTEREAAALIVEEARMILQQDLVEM

Consider `COc1cnc(Cl)cc1-c1cc(C)ncc1C(=O)Nc1nc2ccc(I)cc2s1` [Example 4, 2′-chloro-N-(6-iodo-1,3-benzothiazol-2-yl)-5′-methoxy-6-methyl-[4,4′-bipyridine]-3-carboxamide], for which, under setting [1], the IC50 was < 100 nM.
Same read-out and setting: with `COc1ccccc1-c1cnccc1C(=O)Nc1nc2ccccc2s1` [Example 15, N-(1,3-benzothiazol-2-yl)-3-(2-methoxyphenyl) pyridine-4-carboxamide] the figure was > 1000 nM; with `COc1cnc(Cl)cc1-c1cc(C)ncc1C(=O)Nc1nc2cnc(N3CCC(O)CC3)cc2s1` [Example 68, 2′-chloro-N-[6-(4-hydroxypiperidin-1-yl)-[1,3]thiazolo[4,5-c]pyridin-2-yl]-5′-methoxy-6-methyl-[4,4′-bipyridine]-3-carboxamide], < 100 nM.
Consider `COc1cnc(Cl)cc1-c1cc(C)ncc1C(=O)Nc1nc2cnc(N3CC(OC)C3)cc2s1` [Example 129, 2′-chloro-5′-methoxy-N-[6-(3-methoxyazetidin-1-yl)-[1,3]thiazolo[4,5-c]pyridin-2-yl]-6-methyl-[4,4′-bipyridine]-3-carboxamide], for which the IC50 (Table B (Part B compounds), same assay as Biological Assay 1) was < 100 nM.

The IC50 is the midpoint of a concentration-inhibition curve.
